Common to all, as to test: Antibacterial activity, microbroth dilution method (MIC)
Background: In broth dilution the organism is exposed to a series of concentrations in liquid medium.

Experiment [1] concerns control Gram-negative E. coli 25922 strain. In kind it is cell-based, Escherichia coli. The conditions noted are these: for MIC: Escherichia coli. A digest of the protocol: (§1)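 Growth inhibition by microbroth dilution. MIC = lowest μg/mL with no visible growth. Strain 25922 is the control Gram-negative; BAS849 is hypersensitive.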
The test system of experiment [2] is Gram-positive Staphylococcus aureus (S. aureus) 29213. The experiment is classed as cell-based. As to conditions: Gram-positive S. aureus 29213; for MIC: Staphylococcus aureus. A digest of the protocol:
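Lowest concentration stopping macroscopically visible growth under test conditions, by broth microdilution, defines the MIC (μg/mL).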

Experiment [3] concerns super sensitive Gram-negative Escherichia coli (E. coli) BAS849. The experiment is classed as cell-based. As to conditions: super sensitive Gram-negative E. coli BAS849, microbroth dilution; for MIC: Escherichia coli, read-out: MIC, E. coli BAS849. Summed up:
as §1

Each structure is given as a SMILES string. ≈ marks a conversion by molar mass, not a printed value. Structures can show the parent of a compound that is named as a salt.

The MIC is the lowest concentration that inhibits growth of the organism. For `Cl.Cn1c(CN2CC[C@@H](F)C2)cc2cc3c(cc21)CCCc1c-3[nH]c(=O)c(C(=O)O)c1O` [Cpd 46, (R)-10-((3-fluoropyrrolidin-1-yl)methyl)-4-hydroxy-9-methyl-2-oxo-1,2,5,6,7,9-hexahydropyrido[3′,2′:6,7]cyclohepta[1,2-f]indole-3-carboxylic acid hydrochloride], the MIC in experiment [1] was 1 to 3.5 mg/L; in experiment [2], 3.5 to 12.5 mg/L; in experiment [3], below 1 mg/L.
Taken in the same sequence, the figures for `COCC(C)NCc1cc2cc3c(cc2n1C)CCCc1c-3[nH]c(=O)c(C(=O)O)c1O.Cl` (stereo not drawn) [Cpd 150, 4-hydroxy-10-(((1-methoxypropan-2-yl)amino)methyl)-9-methyl-2-oxo-1,2,5,6,7,9-hexahydropyrido[3′,2′:6,7]cyclohepta[1,2-f]indole-3-carboxylic acid hydrochloride] were 1 to 3.5 mg/L, 3.5 to 12.5 mg/L and below 1 mg/L.
On the same counts, the results for `CCNCc1cc2cc3c(cc2n1C)CCCc1c-3[nH]c(=O)c(C(=O)O)c1O.Cl` [Cpd 25, 10-((ethylamino)methyl)-4-hydroxy-9-methyl-2-oxo-1,2,5,6,7,9-hexahydropyrido[3′,2′:6,7]cyclohepta[1,2-f]indole-3-carboxylic acid hydrochloride] are below 1 mg/L, 3.5 to 12.5 mg/L and below 1 mg/L.
On the same counts, the results for `CNCc1cc2c3c(ccc2n1C)-c1[nH]c(=O)c(C(=O)O)c(O)c1CCC3.Cl` [Cpd 60, 7-hydroxy-1-methyl-2-((methylamino)methyl)-9-oxo-1,4,5,6,9,10-hexahydropyrido[2′,3′:3,4]cyclohepta[1,2-e]indole-8-carboxylic acid hydrochloride] are 12.5 to 150 mg/L, 12.5 to 150 mg/L and 3.5 to 12.5 mg/L.
Take `N[C@@H]1[C@H]2CN(c3cc4c(c(F)c3F)-c3[nH]c(=O)c(C(=O)O)c(O)c3CCC4)C[C@@H]12` [Cpd 124, 9-((cis,cis)-6-amino-3-azabicyclo[3.1.0]hexan-3-yl)-10,11-difluoro-4-hydroxy-2-oxo-2,5,6,7-tetrahydro-1H-benzo[6,7]cyclohepta[1,2-b]pyridine-3-carboxylic acid hydrochloride]: the MIC was 3.5 to 12.5 mg/L in experiment [1], 12.5 to 150 mg/L in experiment [2] and below 1 mg/L in experiment [3].
In the case of `CN1CCC[C@@H]2CN(c3ccc4c(c3)CCCc3c-4[nH]c(=O)c(C(=O)O)c3O)C[C@@H]21.Cl` [Cpd 115, 4-hydroxy-9-((4aR,7aR)-1-methylhexahydro-1H-pyrrolo[3,4-b]pyridin-6(2H)-yl)-2-oxo-2,5,6,7-tetrahydro-1H-benzo[6,7]cyclohepta[1,2-b]pyridine-3-carboxylic acid hydrochloride], the MIC in experiment [1] was 12.5 to 150 mg/L; in experiment [2] it was 12.5 to 150 mg/L; in experiment [3], 3.5 to 12.5 mg/L.
Regarding `C=CCNCc1cc2cc3c(cc2n1C)CCCc1c-3[nH]c(=O)c(C(=O)O)c1O.Cl` [Cpd 153, 10-((allylamino)methyl)-4-hydroxy-9-methyl-2-oxo-1,2,5,6,7,9-hexahydropyrido[3′,2′:6,7]cyclohepta[1,2-f]indole-3-carboxylic acid hydrochloride], the MIC in experiment [1] was below 1 mg/L; in experiment [2], 3.5 to 12.5 mg/L; in experiment [3], below 1 mg/L.
Take `CCNCc1cc2cc3c(cc2n1C)CCCc1cc(C(=O)O)c(=O)[nH]c1-3.Cl` [Cpd 54, 10-((ethylamino)methyl)-9-methyl-2-oxo-1,2,5,6,7,9-hexahydropyrido[3′,2′:6,7]cyclohepta[1,2-f]indole-3-carboxylic acid hydrochloride]: the MIC in experiment [1] is below 1 mg/L; in experiment [2], 12.5 to 150 mg/L; in experiment [3], below 1 mg/L.
`CN(C)c1ccc2c(c1)SCCc1c-2[nH]c(=O)c(C(=O)O)c1O` [Cpd 185, 9-(dimethylamino)-4-hydroxy-2-oxo-1,2,5,6-tetrahydrobenzo[2,3]thiepino[4,5-b]pyridine-3-carboxylic acid]: the MIC in experiment [1] was 12.5 to 150 mg/L (≈ 37.6 to 451 µM); in experiment [2], 12.5 to 150 mg/L (≈ 37.6 to 451 µM); in experiment [3], below 1 mg/L.
Regarding `CNCc1cc2cc3c(cc2n1C)CCCc1c-3[nH]c(=O)c(C(=O)O)c1O.Cl` [Cpd 22, 4-hydroxy-9-methyl-10-((methylamino)methyl)-2-oxo-1,2,5,6,7,9-hexahydropyrido[3′,2′:6,7]cyclohepta[1,2-f]indole-3-carboxylic acid hydrochloride], the MIC in experiment [1] is below 1 mg/L; in experiment [2], 3.5 to 12.5 mg/L; in experiment [3], below 1 mg/L.
`CCC(C)NCc1cc2cc3c(cc2n1C)CCCc1c-3[nH]c(=O)c(C(=O)O)c1O.Cl` (stereo not drawn) [Cpd 146, 10-((sec-butylamino)methyl)-4-hydroxy-9-methyl-2-oxo-1,2,5,6,7,9-hexahydropyrido[3′,2′:6,7]cyclohepta[1,2-f]indole-3-carboxylic acid hydrochloride]: the values for the MIC in experiment [1], in experiment [2] and in experiment [3] were below 1 mg/L, 3.5 to 12.5 mg/L and below 1 mg/L, respectively.
As for `Cl.Cn1c(CNC2(C)CC2)cc2cc3c(cc21)CCCc1c-3[nH]c(=O)c(C(=O)O)c1O` [Cpd 33, 4-hydroxy-9-methyl-10-(((1-methylcyclopropyl)amino)methyl)-2-oxo-1,2,5,6,7,9-hexahydropyrido[3′,2′:6,7]cyclohepta[1,2-f]indole-3-carboxylic acid hydrochloride], the MIC in experiment [1] was below 1 mg/L; in experiment [2] it was 3.5 to 12.5 mg/L; in experiment [3], below 1 mg/L.
Turning to `NC1C2CN(c3ccc4c(c3)C(O)CCc3c-4[nH]c(=O)c(C(=O)O)c3O)CC12.O=C(O)C(F)(F)F` (stereo not drawn) [Cpd 14, 9-((cis,cis)-6-amino-3-azabicyclo[3.1.0]hexan-3-yl)-4,7-dihydroxy-2-oxo-2,5,6,7-tetrahydro-1H-benzo[6,7]cyclohepta[1,2-b]pyridine-3-carboxylic acid trifluoroacetate salt], in experiment [1], the “MIC, E. coli 25922” value is “* (an MIC value between >12.5 μg/mL and ≦150 μg/mL)”. For the same compound, the “MIC, S. aureus 29213” value in experiment [2] is “* (an MIC value between >12.5 μg/mL and ≦150 μg/mL)”. Moreover, in experiment [3], the “MIC, E. coli BAS849” value was “* (an MIC value between >12.5 μg/mL and ≦150 μg/mL)”.
On to `Cl.Cn1c(CNCc2cccnc2)cc2cc3c(cc21)CCCc1c-3[nH]c(=O)c(C(=O)O)c1O` [Cpd 52, 4-hydroxy-9-methyl-2-oxo-10-(((pyridin-3-ylmethyl)amino)methyl)-1,2,5,6,7,9-hexahydropyrido[3′,2′:6,7]cyclohepta[1,2-f]indole-3-carboxylic acid hydrochloride], for which the MIC in experiment [1] is 3.5 to 12.5 mg/L; in experiment [2] it was 3.5 to 12.5 mg/L; in experiment [3], below 1 mg/L.
Take `COCCNCc1cc2cc3c(cc2n1C)OCCc1c-3[nH]c(=O)c(C(=O)O)c1O.Cl` [Cpd 183, 4-hydroxy-10-(((2-methoxyethyl)amino)methyl)-9-methyl-2-oxo-2,5,6,9-tetrahydro-1H-pyrido[2′,3′:4,5]oxepino[3,2-f]indole-3-carboxylic acid hydrochloride]: the MIC in experiment [1] is 1 to 3.5 mg/L; in experiment [2] it was 12.5 to 150 mg/L; in experiment [3], below 1 mg/L.
On to `CCNCc1cc2cc3c(cc2n1C)Cc1c-3[nH]c(=O)c(C(=O)O)c1O.Cl` [Cpd 19, 2-((ethylamino)methyl)-8-hydroxy-1-methyl-6-oxo-1,5,6,9-tetrahydropyrido[3′,2′:4,5]cyclopenta[1,2-f]indole-7-carboxylic acid hydrochloride], for which the minimum inhibitory concentration (MIC) in experiment [1], in experiment [2] and in experiment [3] was 12.5 to 150 mg/L each time.

(Values after US20150038438A1, “ANTIBACTERIAL COMPOUNDS AND METHODS FOR USE” (PTC THERAPEUTICS, INC., priority 2011, published 2015).)
